Test results published in patent publication US20160002247A1, “8-SUBSTITUTED IMIDAZOPYRIMIDINONE DERIVATIVE HAVING AUTOTAXIN INHIBITORY ACTIVITY” (THE UNIVERSITY OF TOKYO, priority 2013, published 2016).
pIC50: −log10 of the molar value.

The molecules below were run against T1, Mouse autotaxin enzyme (Mus musculus, UniProt Q9R1E6) (assay: Evaluation of autotaxin inhibitor, Method A (Test Example 1): TG-mTMP fluorescence). Conditions: Assay Method: Method A (Test Example 1); read-out: Inhibitory Activity (Enzyme Inhibitory Activity, IC50).
T1 construct: purchased R&D System
Format: biochemical
Procedure: (Method A) Evaluation of Autotaxin Inhibitor
Solution A containing 25 mM Tris-HCl buffer (pH7.5), 100 mM NaCl, 5 mM MgCl2 and 0.1% BSA was prepared. Mouse autotaxin enzyme (purchased from R&D System) was diluted with Solution A, and 5 μL of which was added to a solution of test compound in DMSO. Furthermore, 5 μl of 0.5 μM TG-mTMP in Solution A was added and allowed to react at room temperature for 2 hours. 5 μl of 150 mM EDTA in Solution A was added to quench the reaction, and a fluorescent dye TokyoGreen, which was produced by the reaction, was detected. The fluorescence was detected using ViewLux (PerkinElmer, Inc.) with an excitation wavelength of 480 nm and a fluorescence wavelength of 540 nm.
The percent inhibition of the test compound was calculated by assuming the sample with no test compound as 0% inhibition and the sample with no enzyme as 100% inhibition, and the percent inhibitions at different concentrations of the test compound were plotted to obtain a concentration-dependent curve.

**Q.** With `C=CCn1c(C)cc(=O)n2cc(-c3ccc(Cl)cc3)nc12` [Compound 15] as the molecule, how does the pIC50 read?
**A.** 7.00 to 8.00

**Q.** `CCCCCCCCn1c(C)cc(=O)n2cc(-c3ccc(Cl)cc3)nc12` [Compound 10] was tested. Which pIC50 did it give?
**A.** 7.00 to 8.00

**Q.** `CCOC(=O)Cn1c(C)cc(=O)n2cc(-c3ccc(F)cc3)nc12` [Compound 30] was tested. Which pIC50 did it give?
**A.** 7.00 to 8.00

**Q.** How did the pIC50 turn out when `COCCOCCOCCn1c(C)cc(=O)n2cc(-c3ccc(Cl)cc3)nc12` [Compound 27] was run?
**A.** < 6.00

**Q.** `CCOC(=O)Cn1c(C)cc(=O)n2cc(-c3cccc([N+](=O)[O-])c3)nc12` [Compound 37] was tested. Which pIC50 did it give?
**A.** 6.00 to 7.00

**Q.** With `CCCCCn1c(C)cc(=O)n2cc(-c3ccc(F)cc3)nc12` [Compound 17] as the molecule, how does the pIC50 read?
**A.** 7.00 to 8.00

**Q.** How did the pIC50 turn out when `COC(=O)Cn1c(C)cc(=O)n2cc(-c3ccc(Cl)cc3)nc12` [Compound 21] was run?
**A.** 7.00 to 8.00

**Q.** With `Cc1cc(=O)n2cc(-c3ccc(Cl)cc3)nc2n1CC(=O)OCc1ccccc1` [Compound 22] as the molecule, how does the pIC50 read?
**A.** 7.00 to 8.00

**Q.** How did the pIC50 turn out when `Cc1cc(=O)n2cc(-c3ccc(Cl)cc3)nc2n1C` [Compound 4] was run?
**A.** 6.00 to 7.00

**Q.** With `CCCn1c(C)cc(=O)n2cc(-c3ccc(Cl)cc3)nc12` [Compound 6] as the molecule, how does the pIC50 read?
**A.** 7.00 to 8.00

**Q.** How did the pIC50 turn out when `CCCCCCCn1c(C)cc(=O)n2cc(-c3ccc(Cl)cc3)nc12` [Compound 9] was run?
**A.** 7.00 to 8.00

**Q.** How did the pIC50 turn out when `CCCCCCCCCCn1c(C)cc(=O)n2cc(-c3ccc(Cl)cc3)nc12` [Compound 12] was run?
**A.** 6.00 to 7.00

**Q.** How did the pIC50 turn out when `CCOC(=O)Cn1c(C)cc(=O)n2cc(-c3ccc(I)cc3)nc12` [Compound 40] was run?
**A.** 7.00 to 8.00

**Q.** `Cc1cc(=O)n2cc(-c3ccc(Cl)cc3)nc2n1CC(=O)OC(C)(C)C` [Compound 23] was tested. Which pIC50 did it give?
**A.** 7.00 to 8.00

**Q.** How did the pIC50 turn out when `CCn1c(C)cc(=O)n2cc(-c3ccc(Cl)cc3)nc12` [Compound 5] was run?
**A.** 7.00 to 8.00

**Q.** How did the pIC50 turn out when `C#CCn1c(C)cc(=O)n2cc(-c3ccc(Cl)cc3)nc12` [Compound 16] was run?
**A.** 7.00 to 8.00

**Q.** How did the pIC50 turn out when `CCOC(=O)Cn1c(C)cc(=O)n2cc(-c3ccc(N)cc3)nc12` [Compound 38] was run?
**A.** < 6.00

**Q.** How did the pIC50 turn out when `CCOC(=O)Cn1c(C)cc(=O)n2cc(-c3ccccc3)nc12` [Compound 35] was run?
**A.** 7.00 to 8.00

**Q.** With `CCCCCn1c(C)cc(=O)n2cc(-c3ccc(C)cc3)nc12` [Compound 19] as the molecule, how does the pIC50 read?
**A.** 7.00 to 8.00

**Q.** How did the pIC50 turn out when `CCOC(=O)Cn1c(C)cc(=O)n2cc(-c3ccc([N+](=O)[O-])cc3)nc12` [Compound 36] was run?
**A.** 7.00 to 8.00

**Q.** With `CCOC(=O)Cn1c(C)cc(=O)n2cc(-c3ccc(Cl)c(Cl)c3)nc12` [Compound 34] as the molecule, how does the pIC50 read?
**A.** 7.00 to 8.00

**Q.** `CCCCCCCCCn1c(C)cc(=O)n2cc(-c3ccc(Cl)cc3)nc12` [Compound 11] was tested. Which pIC50 did it give?
**A.** 6.00 to 7.00

**Q.** `CCOC(=O)Cn1c(C)cc(=O)n2cc(-c3cccc(N)c3)nc12` [Compound 39] was tested. Which pIC50 did it give?
**A.** < 6.00

**Q.** How did the pIC50 turn out when `CCOC(=O)Cn1c(C)cc(=O)n2cc(-c3cccc(Br)c3)nc12` [Compound 33] was run?
**A.** < 6.00

**Q.** How did the pIC50 turn out when `Cc1cc(=O)n2cc(-c3ccc(Cl)cc3)nc2n1C1CCCCC1` [Compound 14] was run?
**A.** 7.00 to 8.00
